Source: patent US7446199B2, “Compositions useful as inhibitors of protein kinases” (Vertex Pharmaceuticals Incorporated, priority 2003, dated 2008)

Assays:
Type in all cases: biochemical
[1] = molecular target: T1, TAK1A-TAB fusion protein (Homo sapiens, UniProt O43318); assay: TAK-1 inhibition assay, radiometric filter binding assay; settings: 50 μM ATP, 12 μM bovine myelin basic protein, 20 nM TAK1A-TAB fusion protein
T1 construct: using 20 nM TAK1A-TAB fusion protein
T1 sequence (O43318 with tags, fused parts or gaps isoform O43318-2 limits assumed): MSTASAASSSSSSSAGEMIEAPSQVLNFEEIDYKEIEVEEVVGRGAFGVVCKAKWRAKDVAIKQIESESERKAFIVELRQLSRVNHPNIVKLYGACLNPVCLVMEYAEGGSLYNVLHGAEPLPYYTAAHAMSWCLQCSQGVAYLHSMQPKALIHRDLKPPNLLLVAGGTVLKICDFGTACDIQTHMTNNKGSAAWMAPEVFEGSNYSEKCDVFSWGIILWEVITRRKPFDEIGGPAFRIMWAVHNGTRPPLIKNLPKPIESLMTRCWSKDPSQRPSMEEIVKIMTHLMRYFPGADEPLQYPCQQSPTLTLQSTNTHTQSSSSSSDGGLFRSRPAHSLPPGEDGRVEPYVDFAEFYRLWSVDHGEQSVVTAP
Summary of the method: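 Radiometric filter-binding assay with 20 nM TAK1A-TAB fusion, 50 μM [33P]ATP and 12 μM bovine MBP in pH 7.5 HEPES/MgCl2, NaCl, DTT, 1.5% DMSO. Compounds titrated 0.046–3.73 μM (6 points); 2 h at ~20 °C, TCA quench, filtered counts. Ki derived from rate versus inhibitor concentration.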

[2] = molecular target: T2, c-KIT (Homo sapiens, UniProt P10721); assay: Inhibition of c-KIT, radiometric filter-binding assay; settings: 700 μM ATP, 0.5 mg/mL pE4Y, room temperature
T2 construct: 0.02% BSA and 25 nM c-KIT
T2 sequence (P10721 26-976): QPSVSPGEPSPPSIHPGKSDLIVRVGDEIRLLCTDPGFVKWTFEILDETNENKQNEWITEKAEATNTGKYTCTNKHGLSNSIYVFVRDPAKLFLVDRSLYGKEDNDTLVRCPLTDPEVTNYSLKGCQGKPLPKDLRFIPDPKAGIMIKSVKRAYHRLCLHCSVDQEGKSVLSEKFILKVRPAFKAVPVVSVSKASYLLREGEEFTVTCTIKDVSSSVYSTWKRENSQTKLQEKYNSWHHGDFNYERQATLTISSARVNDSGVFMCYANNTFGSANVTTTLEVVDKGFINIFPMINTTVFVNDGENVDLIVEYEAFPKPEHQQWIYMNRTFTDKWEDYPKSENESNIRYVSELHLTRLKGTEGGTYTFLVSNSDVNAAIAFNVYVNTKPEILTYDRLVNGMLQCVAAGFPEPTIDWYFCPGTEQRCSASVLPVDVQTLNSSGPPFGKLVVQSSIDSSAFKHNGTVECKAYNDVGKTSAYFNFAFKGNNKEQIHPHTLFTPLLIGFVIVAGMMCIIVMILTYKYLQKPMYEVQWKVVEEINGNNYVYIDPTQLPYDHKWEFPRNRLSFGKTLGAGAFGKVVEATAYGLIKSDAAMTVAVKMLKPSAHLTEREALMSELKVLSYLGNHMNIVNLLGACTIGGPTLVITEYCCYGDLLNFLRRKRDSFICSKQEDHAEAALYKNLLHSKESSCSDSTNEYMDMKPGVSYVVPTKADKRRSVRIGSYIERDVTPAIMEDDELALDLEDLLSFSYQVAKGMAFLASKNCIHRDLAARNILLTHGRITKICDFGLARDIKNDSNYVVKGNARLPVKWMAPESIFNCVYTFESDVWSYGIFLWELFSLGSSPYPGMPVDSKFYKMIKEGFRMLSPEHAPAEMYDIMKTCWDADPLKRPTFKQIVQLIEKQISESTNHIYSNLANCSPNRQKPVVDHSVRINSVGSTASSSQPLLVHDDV
Summary of the method: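 Radiometric filter-binding: 25 nM c-KIT (enzyme in the Solution 2 mix) with poly(Glu,Tyr) 4:1 substrate at 0.5 mg/mL and [γ-^33P]ATP at 700 μM (both final), in HEPES pH 7.5/MgCl2/NaCl/DTT/BSA with 2.5% DMSO. Incubated 20 min at room temperature, stopped with TCA, and ^33P incorporation counted on filters. 12-point titration, final compound typically 0.01-5 μM; IC50 or Ki from curve fit.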

[3] = molecular target: SYK (Homo sapiens, UniProt P43405); assay: SYK enzyme assay, coupled enzyme assay; settings: 200 μM ATP, 4 μM poly Gly-Tyr peptide, 30° C.
Summary of the method: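 Pyruvate kinase/lactate dehydrogenase-coupled NADH assay in HEPES pH 7.5 with MgCl2, NaCl, DTT and 1.5% DMSO, using 200 μM ATP, 4 μM poly Gly-Tyr and 25 nM enzyme. Compound at 30 μM final was preincubated ~10 min at 30 °C. Rates were read over 5 min at 30 °C and Ki derived.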

SMILES | Ki [1] [µM] | Ki [2] [µM] | Ki [3] [µM]
CN1CCN(C(=O)[C@H]2C[C@@H]2c2cnc3[nH]cc(-c4oncc4-c4cccc(F)c4F)c3c2)CC1 (relative stereo) [Compound 142, trans-(2-{3-[4-(2,3-Difluoro-phenyl)-isoxazol-5-yl]-1H-pyrrolo[2,3-b]pyridin-5-yl}-cyclopropyl)-(4-methyl-piperazin-1-yl)-methanone] | 0.2 to 1 | < 0.2 | –
COc1cnc2[nH]cc(-c3nncn3-c3cccc(F)c3F)c2c1 [Compound 108, 3-[4-(2,3-Difluoro-phenyl)-4H-[1,2,4]triazol-3-yl]-5-methoxy-1H-pyrrolo[2,3-b]pyridine] | – | 0.2 to 1 | –
Cc1cnc2[nH]cc(-c3oncc3-c3cccc(F)c3F)c2c1 [Compound 46, 3-[4-(2,3-Difluoro-phenyl)-isoxazol-5-yl]-5-methyl-1H-pyrrolo[2,3-b]pyridine] | 1 to 12.5 | 0.2 to 1 | –
CN(C)C1CCC(c2cnc3[nH]cc(-c4oncc4-c4cccc(F)c4F)c3c2)CC1 (centres unmarked) [Compound 141, (4-{3-[4-(2,3-Difluoro-phenyl)-isoxazol-5-yl]-1H-pyrrolo[2,3-b]pyridin-5-yl}-cyclohexyl)-dimethylamine] | 0.2 to 1 | < 0.2 | –
c1ccc(-c2cnoc2-c2c[nH]c3ncccc23)cc1 [Compound 35, 3-[4-Phenyl-isoxazol-5-yl]-1H-pyrrolo[2,3-b]pyridine] | – | – | 1 to 12.5
Fc1ccc(F)c(-c2cnoc2-c2c[nH]c3ncccc23)c1F [Compound 41, 3-[4-(2,3,6-Trifluoro-phenyl)-isoxazol-5-yl]-1H-pyrrolo [2,3-b]pyridine] | – | – | 1 to 12.5
C[N+]1(C)CCN(c2ccc(-c3cnc4[nH]cc(-c5oncc5-c5cccc(F)c5F)c4c3)cc2)CC1 [Compound 155] | < 0.2 | < 0.2 | 0.2 to 1
OCc1cnc2[nH]cc(-c3oncc3-c3cccc(F)c3F)c2c1 [Compound 55, {3-[4-(2,3-Difluoro-phenyl)-isoxazol-5-yl]-1H-pyrrolo[2,3-b]pyridin-5-yl}-methanol] | – | 0.2 to 1 | –
Fc1cccc(-c2cnoc2-c2c[nH]c3ncc(Cl)cc23)c1F [Compound 44, 3-[4-(2,3-Difluoro-phenyl)-isoxazol-5-yl]-5-chloro-1H-pyrrolo[2,3-b]pyridine] | – | – | 1 to 12.5
NC(=O)c1ccc(-c2cnc3[nH]cc(-c4oncc4-c4cccc(F)c4F)c3c2)cc1 [Compound 153] | – | < 0.2 | –
Fc1cccc(-n2cnnc2-c2c[nH]c3ncc(-c4ccc(N5CCNCC5)nc4)cc23)c1F [Compound 111, 3-[4-(2,3-Difluoro-phenyl)-4H-[1,2,4]triazol-3-yl]-5-(6-piperazin-1-yl-pyridin-3-yl)-1H-pyrrolo[2,3-b]pyridine] | 1 to 12.5 | 0.2 to 1 | –
